Test results published in patent US8017631B2, “Oxadiazole derivatives and their medical use” (Neurosearch A/S, priority 2005, dated 2011).

How the values were obtained:
[1] = target: T1, human nicotinic acetylcholine receptor subtype α4β2 (Homo sapiens, UniProt P17787+P43681); experiment: Characterization of hα4β2 positive allosteric modulators using FLIPR; format: cell-based
T1 construct: expressed in transfected cells; host or cells: human HEK cells
Description: The ability is determined relative to a maximal nicotine response (normally 100 μM). The activity is determined as a standard assay using a fluorometric method in a Fluorescent Image Plate Reader (FLIPR) as described below in more detail.
Full concentration/response curves are generated and EC50 values are calculated based on peak values. EC50 values (Effective Concentration) represent the concentration of the test substance, at which the nicotine-induced EC20-30 response is positively modulated such that the size of the response equals 50% of a maximal nicotine control response. The maximal positively modulated response is determined relative to the reference (nicotine) response.

T1 sequence (P43681 29-627 limits assumed): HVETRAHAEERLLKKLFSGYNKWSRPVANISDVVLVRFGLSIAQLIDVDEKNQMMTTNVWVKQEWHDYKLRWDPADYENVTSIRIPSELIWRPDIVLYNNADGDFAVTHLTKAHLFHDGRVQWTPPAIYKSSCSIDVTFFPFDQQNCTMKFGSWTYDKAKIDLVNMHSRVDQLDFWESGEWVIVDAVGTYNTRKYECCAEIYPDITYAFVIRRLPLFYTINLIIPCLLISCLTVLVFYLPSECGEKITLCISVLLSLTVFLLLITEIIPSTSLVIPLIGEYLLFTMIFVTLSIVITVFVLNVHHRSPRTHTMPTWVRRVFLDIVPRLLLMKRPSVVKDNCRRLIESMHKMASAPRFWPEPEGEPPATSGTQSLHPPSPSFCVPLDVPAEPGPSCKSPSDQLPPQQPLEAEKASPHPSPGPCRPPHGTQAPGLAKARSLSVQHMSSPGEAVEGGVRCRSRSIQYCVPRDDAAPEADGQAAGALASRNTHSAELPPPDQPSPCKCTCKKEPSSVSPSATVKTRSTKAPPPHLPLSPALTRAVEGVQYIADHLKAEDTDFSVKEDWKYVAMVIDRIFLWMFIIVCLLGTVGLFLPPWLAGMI
T1 sequence (P17787 26-502): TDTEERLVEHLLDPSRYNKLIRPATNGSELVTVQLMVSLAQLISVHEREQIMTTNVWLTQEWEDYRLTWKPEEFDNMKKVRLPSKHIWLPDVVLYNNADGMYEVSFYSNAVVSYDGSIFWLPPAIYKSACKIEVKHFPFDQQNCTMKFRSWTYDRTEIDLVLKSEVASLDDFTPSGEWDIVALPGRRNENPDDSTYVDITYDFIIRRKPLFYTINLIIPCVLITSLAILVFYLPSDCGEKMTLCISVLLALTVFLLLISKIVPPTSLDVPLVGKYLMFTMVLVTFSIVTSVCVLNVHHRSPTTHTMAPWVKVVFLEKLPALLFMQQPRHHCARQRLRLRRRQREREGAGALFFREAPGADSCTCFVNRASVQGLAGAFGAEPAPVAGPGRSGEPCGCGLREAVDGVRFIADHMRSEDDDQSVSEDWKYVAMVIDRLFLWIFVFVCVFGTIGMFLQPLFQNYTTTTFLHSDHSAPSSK

In the case of `O=[N+]([O-])c1ccc(-c2nc(-c3cccnc3)no2)o1` [Compound 1, 3-(5-(5-Nitro-furan-2-yl)-[1,2,4]oxadiazol-3-yl)-pyridine], the “Max. Response rel. to Nicotine” value ([1]; maximal positively modulated response relative to maximal nicotine response (normally 100 μM), HEK cells expressing hα4β2) is reported as 97% and the EC50 ([1]; positive modulation of sub-maximal nicotine (EC20-30) response, human HEK cells expressing hα4β2, peak values) is reported as 6.8 µM.

Compound `N#Cc1ccc(-c2nc(-c3cccnc3)no2)o1` [Compound 6.2, 5-(3-Pyridin-3-yl-[1,2,4]oxadiazol-5-yl)-furan-2-carbonitrile] has a melting point of 141 to 144 °C.
